Experimental data taken from patent US10315992B2, “Tetracyline compounds” (Tetraphase Pharmaceuticals, Inc., priority 2012, dated 2019).
Where two headings read alike, the source gives them in different places.

Legend:
[1] = test system: Staphylococcus aureus SA100 (ATCC 13709, MSSA, Smith strain); experiment: MIC assay, SA100; format: cell-based; conditions: read-out: MIC SA 100 13709
[2] = test system: Staphylococcus aureus SA191 (HA-MRSA, tetracycline-resistant); experiment: MIC assay, SA191; format: cell-based; conditions: MRSA, read-out: MIC SA 191
[3] = test system: Staphylococcus aureus SA161 (HA-MRSA, tet(M)); experiment: MIC assay, SA161; format: cell-based; conditions: Staphylococcus aureus, MRSA
[4] = test system: Staphylococcus aureus SA158 (tetracycline-resistant tet(K)); experiment: MIC assay, SA158; format: cell-based
[5] = test system: Enterococcus faecalis EF103 (ATCC 29212); experiment: MIC assay, EF103; format: cell-based; conditions: ATCC29212, read-out: MIC EF 103 29212
[6] = test system: Enterococcus faecalis EF159 (tet(M)); experiment: MIC assay, EF159; format: cell-based
[7] = test system: Enterococcus faecalis EF327 (wound isolate, tet(M)); experiment: MIC assay, EF327; format: cell-based
[8] = test system: Haemophilus influenzae HI262 (tetracycline-resistant, ampicillin-resistant); experiment: MIC assay, HI262; format: cell-based; conditions: read-out: MIC HI 262 33929
[9] = test system: Moraxella catarrhalis MC205 (ATCC 8176); experiment: MIC assay, MC205; format: cell-based; conditions: ATCC8176, read-out: MIC MC 205 8176
[10] = test system: Escherichia coli EC107 (ATCC 25922); experiment: MIC assay, EC107; format: cell-based
[11] = test system: Escherichia coli EC155 (tet(A)); experiment: MIC assay, EC155; format: cell-based; conditions: Escherichia coli, read-out: MIC EC 155 tetA
[12] = test system: Enterobacter cloacae EC108 (ATCC 13047); experiment: MIC assay, EC108; format: cell-based; conditions: ATCC13047, read-out: MIC ECI 108 13047
[13] = test system: Enterobacter cloacae EC603 (urine isolate); experiment: MIC assay, EC603; format: cell-based
[14] = test system: Escherichia coli EC878 (MG1655 tolC::kan); experiment: microbe, parasite or virus in culture; format: cell-based
[15] = test system: Pseudomonas aeruginosa PA111 (ATCC 27853); experiment: MIC assay, PA111; format: cell-based; conditions: ATCC27853, read-out: MIC PA 111 27853
[16] = test system: Pseudomonas aeruginosa PA555 (ATCC BAA-47, PAO1); experiment: MIC assay, PA555; format: cell-based
[17] = test system: Acinetobacter baumannii AB110 (ATCC 19606); experiment: MIC assay, AB110; format: cell-based; conditions: ATCC19606, read-out: MIC AB 110 19606
[18] = test system: Acinetobacter baumannii AB250 (cystic fibrosis isolate, MDR); experiment: MIC assay, AB250; format: cell-based
[19] = test system: Stenotrophomonas maltophilia SM256 (cystic fibrosis isolate, MDR); experiment: MIC assay, SM256; format: cell-based
EC 880 ipxC = experiment: MIC assay, EC880; format: cell-based
From the text: (§1) Minimum Inhibitory Concentration (MIC) Assay
(§2) The assays were run as follows.

EC 882 imp = experiment: MIC assay, EC882; format: cell-based; conditions: read-out: MIC EC 882 imp
From the text: as §1, §2

[20] = test system: Klebsiella pneumoniae KP153 (tet(A), MDR, ESBL+); conditions: K. pneumoniae tet(A), MDR, ESBL+
[21] = test system: Klebsiella pneumoniae KP457 (2009 ESBL+, CTX-M, OXA); conditions: for MIC KP 457 CTX- M-15: K. pneumoniae ESBL+
KP 194 7E+05 = experiment: MIC assay, KP194; conditions: Table 5
Protocol: (§3) MICs were determined according to the Clinical and Laboratory Standards Institute (CLSI) guidances (e.g., CLSI. Performance standards for antimicrobial susceptibility testing; nineteenth information supplement. CLSI document M100-S19, CLSI, 940 West Valley Road, Suite 1400, Wayne, Pa. 19087-1898, USA, 2009). Briefly, frozen bacterial strains were thawed and subcultured onto Mueller Hinton Broth (MHB) or other appropriate media (Streptococcus requires blood and Haemophilus requires hemin and NAD). Following incubation overnight, the strains were subcultured onto Mueller Hinton Agar and again incubated overnight. […] Isolated colonies were selected to prepare a starting inoculum equivalent to a 0.5 McFarland standard. […] Test compounds were prepared by dilution in sterile water to a final concentration of 5.128 mg/mL. Antibiotics (stored frozen, thawed and used within 3 hours of thawing) and compounds were further diluted to the desired working concentrations.
(§4) The assays were run as follows. Fifty μL of MHB was added to wells 2-12 of a 96-well plate. One hundred μL of appropriately diluted antibiotics was added to well 1. Fifty μL of antibiotics was removed from well 1 and added to well 2 and the contents of well 2 mixed by pipetting up and down five times. Fifty μL of the mixture in well 2 was removed and added to well 3 and mixed as above. Serial dilutions were continued in the same manner through well 12. Fifty μL was removed from well 12 so that all contained 50 μL. Fifty μL of the working inoculum was then added to all test wells. A growth control well was prepared by adding 50 μL of working inoculum and 50 μL of MHB to an empty well. The plates were then incubated at 37° C. overnight, removed from the incubator and each well was read on a plate reading mirror. The lowest concentration (MIC) of test compound that inhibited the growth of the bacteria was recorded.

PA 884 35151 = experiment: MIC assay, PA884; conditions: Pseudomonas aeruginosa, read-out: MIC PA 884 351 51
Protocol: as §3, §4

CN(C)c1cc(NC(=O)CNC(C)(C)C)c(O)c2c1C[C@H]1C[C@H]3[C@H](N(C)C)C(O)=C(C(N)=O)C(=O)[C@@]3(O)C(O)=C1C2=O [Tigecycline, tigecycline]
0.03 µg/mL: MIC ([10]; ATCC25922, read-out: MIC EC 07 25922, E. coli ATCC 25922, Table 7) | MIC ([10]; ATCC25922, read-out: MIC EC 107 259 22, E. coli ATCC 25922, Table 6) | MIC ([10]; ATCC25922, read-out: MIC EC 107 25922, E. coli ATCC 25922, Table 5) | MIC ([10]; ATCC25922, read-out: MIC EC 107 25922, control compounds) | MIC ([10]; ATCC25922, read-out: MIC EC 107 25922, control compounds, numeric) | MIC ([14]; MG1655, read-out: MIC EC 878 toIC, E. coli MG1655 tolC::kan, Table 7) | MIC ([14]; MG1655, read-out: MIC EC 878 toIC, control compounds) | MIC ([14]; MG1655, read-out: MIC EC 878 tolC, control compounds, numeric)
0.02 µg/mL: MIC [9] | MIC (EC 880 ipxC; Table 7, read-out: MIC EC 880 ipxC) | MIC (EC 882 imp; Table 7)
0.015 µg/mL: MIC (EC 880 ipxC; Table 6, read-out: MIC EC 880 ipx C) | MIC (EC 882 imp; Table 6)
0.031 µg/mL: MIC [5] | MIC ([10]; ATCC25922, read-out: MIC EC 107 25922, E. coli ATCC 25922, Table 4) | MIC ([14]; MG1655, read-out: MIC EC 878 toIC, E. coli MG1655 tolC::kan, Table 6)
0.5 µg/mL: MIC [2] | MIC [11]
1 µg/mL: MIC [8] | MIC [19] | MIC ([19]; read-out: MIC SM 256) | MIC KP 153 tetA ([20]; Table 4) | MIC KP 153 tetA ([20]; Table 5) | MIC KP 457 CTX- M-15 ([21]; Table 6) | MIC KP 457 CTX- M-15 ([21]; Table 7) | MIC KP 457 CTX-M-15 ([21]; control compounds) | MIC KP 457 ([21]; control compounds, numeric)
0.13 µg/mL: MIC ([3]; read-out: MIC SA 161 tetM)
8 μg/mL: MIC KP 194 7E+05 (KP 194 7E+05)
16 µg/mL: MIC [16] | MIC ([16]; read-out: MIC PA5 55 BAA- 47) | MIC ([16]; read-out: MIC PA 555) | MIC ([16]; read-out: MIC PA 555 BAA- 47) | MIC ([16]; read-out: MIC PA 555 BAA-47)
0.063 µg/mL: MIC [1] | MIC ([4]; read-out: MIC SA 158 tetK, S. aureus tet(K), Table 4) | MIC ([4]; read-out: MIC SA 158 tetK, S. aureus tet(K), Table 6) | MIC ([6]; read-out: MIC EF 159 tetM, E. faecalis tet(M), Table 4) | MIC ([7]; read-out: MIC EF 327 tet M) | MIC (PA 884 35151)
0.125 µg/mL: MIC ([3]; read-out: MIC SA 161 MRSAtetM) | MIC ([3]; read-out: MIC SA 161 tet M)
2 µg/mL: MIC [13] | MIC ([13]; read-out: MIC EC 603 tetA)
0.25 µg/mL: MIC [12] | MIC [17]
0.06 µg/mL: MIC ([4]; read-out: MIC SA 158 tetK, S. aureus tet(K), Table 5) | MIC ([4]; read-out: MIC SA 158 tetK, S. aureus tet(K), Table 7) | MIC ([4]; read-out: MIC SA 158 tetK, control compounds) | MIC ([4]; read-out: MIC SA 158 tetK, control compounds, numeric) | MIC ([6]; read-out: MIC EF 159 tetM, E. faecalis tet(M), Table 5) | MIC ([7]; read-out: MIC EF 327 tetM)
8 µg/mL: MIC [15] | MIC [18] | MIC ([18]; read-out: MIC AB 250)
